Legend:
Test in all cases: combination Emax (second highest fraction inhibited in the dose matrix, 72 h); higher = more inhibition; extreme values may be limits of the assay
[1] = system: ALL-PO (B-Lymphoblastic Leukemia)
Summary of the method: (§1)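 Cell lines grown in DMEM/F12 or RPMI with 10% FBS were plated in 1536-well plates and held 24 hours at 37°C, 5% CO2 before 72 hours of exposure to two-drug dose matrices, with DMSO typically at 0.2%. CellTiter-Glo 2.0 luminescence gave viability, which was converted to inhibition. Vehicle wells were set to 0 and blank wells to 1. Combination Emax is the second-highest inhibition in the matrix, and Bliss excess is the observed combination effect minus the expected EA + EB − EA·EB, where EA and EB are the single-agent effects.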

[2] = system: BE-13 (T-Lymphoblastic Leukemia)
Summary of the method: as §1

[3] = system: BFTC-909 (Kidney Carcinoma)
Summary of the method: as §1

BPH-1 (Non-Cancerous) = system: BPH-1 (Non-Cancerous)
Summary of the method: as §1

[4] = system: CAL-33 (Oral Cavity Carcinoma)
Summary of the method: as §1

GAMG (Glioblastoma) = system: GAMG (Glioblastoma)
Summary of the method: as §1

[5] = system: HH (T-Cell Non-Hodgkin's Lymphoma)
Summary of the method: as §1

[6] = system: HuH-7 (Hepatocellular Carcinoma)
Summary of the method: as §1

[7] = system: KMRC-20 (Kidney Carcinoma)
Summary of the method: as §1

KS-1 (Glioblastoma) = system: KS-1 (Glioblastoma)
Summary of the method: as §1

[8] = system: KYAE-1 (Esophageal Adenocarcinoma)
Summary of the method: as §1

LOXIMVI (Melanoma) = system: LOXIMVI (Melanoma)
Summary of the method: as §1

[9] = system: LS-123 (Colorectal Carcinoma)
Summary of the method: as §1

MPP-89 (Mesothelioma) = system: MPP-89 (Mesothelioma)
Summary of the method: as §1

[10] = system: NCI-H1568 (Lung Adenocarcinoma)
Summary of the method: as §1

[11] = system: OV-56 (Ovarian Carcinoma)
Summary of the method: as §1

[12] = system: SNU-449 (Hepatocellular Carcinoma)
Summary of the method: as §1

[13] = system: SW1710 (Bladder Carcinoma)
Summary of the method: as §1

[14] = system: WSU-NHL (B-Cell Non-Hodgkin's Lymphoma)
Summary of the method: as §1

[15] = system: YAPC (Pancreatic Carcinoma)
Summary of the method: as §1

SMILES	combination Emax [1]	combination Emax [2]	combination Emax [3]	combination Emax (BPH-1 (Non-Cancerous))	combination Emax [4]	combination Emax (GAMG (Glioblastoma))	combination Emax [5]	combination Emax [6]	combination Emax [7]	combination Emax (KS-1 (Glioblastoma))	combination Emax [8]	combination Emax (LOXIMVI (Melanoma))	combination Emax [9]	combination Emax (MPP-89 (Mesothelioma))	combination Emax [10]	combination Emax [11]	combination Emax [12]	combination Emax [13]	combination Emax [14]	combination Emax [15]
COc1cccc(OCCCN)c1-c1cc(Nc2cnc(C#N)cn2)n[nH]1 [Prexasertib] + C=CCn1c(=O)c2cnc(Nc3ccc(N4CCN(C)CC4)cc3)nc2n1-c1cccc(C(C)(C)O)n1 [AZD1775] (first compound max 1 µM, partner max 1 µM)	0.989	1	0.977	0.809	0.916	0.951	0.742	0.438	0.885	0.581	0.795	0.859	0.828	0.826	0.563	0.921	0.439	0.823	1	0.669
NC1(C(=O)N[C@@H](CCO)c2ccc(Cl)cc2)CCN(c2ncnc3[nH]ccc23)CC1 [Capivasertib] + CCN(CCO)CCCOc1ccc2c(Nc3cc(CC(=O)Nc4cccc(F)c4)[nH]n3)ncnc2c1 [AZD2811] (first compound max 10 µM, 7x7, partner max 1 µM)	1	0.733	0.638	0.587	0.897	0.669	0.281	0.225	0.398	0.547	0.156	0.517	0.398	0.435	0.22	0.249	0.187	0.36	0.966	0.233
CC(=O)c1c(C)c2cnc(Nc3ccc(N4CCNCC4)cn3)nc2n(C2CCCC2)c1=O [Palbociclib] + CC1(C)CCC(CN2CCN(c3ccc(C(=O)NS(=O)(=O)c4ccc(NCC5CCOCC5)c([N+](=O)[O-])c4)c(Oc4cnc5[nH]ccc5c4)c3)CC2)=C(c2ccc(Cl)cc2)C1 [Venetoclax] (first compound max 10 µM, 7x7, partner max 1 µM)	0.931	0.588	0.326	0.153	0.113	0.231	0.343	0.0832	0.214	0.348	0.132	0.515	0.138	0.0837	0.423	0.117	0.272	0.246	0.92	0.165
CS(=O)(=O)CCNCc1ccc(-c2ccc3ncnc(Nc4ccc(OCc5cccc(F)c5)c(Cl)c4)c3c2)o1 [Lapatinib] + NC1(c2ccc(-c3nc4ccn5c(=O)[nH]nc5c4cc3-c3ccccc3)cc2)CCC1 [MK-2206] (first compound max 10 µM, 7x7, partner max 10 µM)		0.971	0.941			0.862	0.451			0.403	0.892	0.967	0.629	0.152			0.82	0.602	0.969	0.356
CCc1c2c(nc3ccc(O)cc13)-c1cc3c(c(=O)n1C2)COC(=O)[C@]3(O)CC [SN-38] + O=C(c1cc(Cc2n[nH]c(=O)c3ccccc23)ccc1F)N1CCN(C(=O)C2CC2)CC1 [Olaparib] (first compound max 0.3 µM, 7x7, partner max 10 µM)	0.981	0.965	0.931	0.963	0.962	0.762	0.103			0.556	0.118	0.784	0.55	0.646			0.175	0.327	1	0.646
CN(CCO)CC[C@H](CSc1ccccc1)Nc1ccc(S(=O)(=O)NC(=O)c2ccc(N3CCC([C@@H](O)c4ccccc4-c4ccc(Cl)cc4)CC3)cc2)cc1S(=O)(=O)C(F)(F)F [AZD4320] + C1CN(CCC1(C(=O)N[C@@H](CCO)C2=CC=C(C=C2)Cl)N)C3=NC=NC4=C3C=CN4 [Capivasertib] (first compound max 1 µM, 7x7, partner max 3 µM)	0.97	0.994	0.346	0.562	0.363	0.407	0.417	0.197	0.245	0.296	0.65	0.202		0.198	0.142	0.0773	0.0999	0.302	1	0.0702
CN(CCO)CC[C@H](CSc1ccccc1)Nc1ccc(S(=O)(=O)NC(=O)c2ccc(N3CCC([C@@H](O)c4ccccc4-c4ccc(Cl)cc4)CC3)cc2)cc1S(=O)(=O)C(F)(F)F [AZD4320] + CN(C)CCCOc1ccc(-c2ccc3ncc4c(c3c2)n(C2CCOCC2)c(=O)n4C)cn1 [AZD0156] (first compound max 1 µM, 7x7, partner max 1 µM)	0.97	0.977	0.239	0.474	0.198	0.197	0.274	0.154	0.113	0.239	0.338	0.366		0.236	0.313	0.153	0.15	0.117	0.866	0.129
CN(CCO)CC[C@H](CSc1ccccc1)Nc1ccc(S(=O)(=O)NC(=O)c2ccc(N3CCC([C@@H](O)c4ccccc4-c4ccc(Cl)cc4)CC3)cc2)cc1S(=O)(=O)C(F)(F)F [AZD4320] + Cn1cnc2c(F)c(Nc3ccc(Br)cc3Cl)c(C(=O)NOCCO)cc21 [Selumetinib] (first compound max 1 µM, 7x7, partner max 3 µM)	1	0.995	0.473	0.784	0.701	0.296	0.3	0.55	0.261	0.341	0.377	0.689		0.399	0.444	0.304	0.221	0.315	0.885	0.194
Cc1c2c(nn1C)CSCc1cc(n(C)n1)CSc1cc(c3ccccc3c1)OCCCc1c(C(=O)O)n(C)c3c-2c(Cl)ccc13 [AZD5991] + C[C@@H]1COCCN1C2=NC(=NC(=C2)C3(CC3)[S@](=N)(=O)C)C4=C5C=CNC5=NC=C4 [AZD6738] (first compound max 1 µM, 7x7, partner max 10 µM)	1		0.931	0.521	0.901	0.579	0.759	0.279	0.516	0.587	0.207	0.742	0.609	0.596	0.502	0.558	0.198	0.436	0.994	0.327
CN(CCO)CC[C@H](CSc1ccccc1)Nc1ccc(S(=O)(=O)NC(=O)c2ccc(N3CCC([C@@H](O)c4ccccc4-c4ccc(Cl)cc4)CC3)cc2)cc1S(=O)(=O)C(F)(F)F [AZD4320] + C=CCn1c(=O)c2cnc(Nc3ccc(N4CCN(C)CC4)cc3)nc2n1-c1cccc(C(C)(C)O)n1 [AZD1775] (first compound max 1 µM, partner max 1 µM)	1	1	0.905	0.709	0.859	0.643	0.802	0.729	0.61	0.549	0.843	0.691		0.628	0.57	0.165	0.138	0.418	0.995	0.278
Cc1c2c(nn1C)CSCc1cc(n(C)n1)CSc1cc(c3ccccc3c1)OCCCc1c(C(=O)O)n(C)c3c-2c(Cl)ccc13 [AZD5991] + CC1(C)CCC(CN2CCN(c3ccc(C(=O)NS(=O)(=O)c4ccc(NCC5CCOCC5)c([N+](=O)[O-])c4)c(Oc4cnc5[nH]ccc5c4)c3)CC2)=C(c2ccc(Cl)cc2)C1 [Venetoclax] (first compound max 1 µM, 7x7, partner max 1 µM)	1	0.916	0.239	0.353		0.315	0.858	0.306	0.162	0.146	0.225	0.229	0.142	0.171	0.248	0.173	0.23	0.168	0.975	0.146
C[C@@H](Nc1cc(F)cc(F)c1)c1cc(C(=O)N(C)C)cc2c(=O)cc(N3CCOCC3)oc12 [AZD8186] + CC(=O)c1c(C)c2cnc(Nc3ccc(N4CCNCC4)cn3)nc2n(C2CCCC2)c1=O [Palbociclib] (first compound max 10 µM, 7x7, partner max 10 µM)		0.62				0.723	0.413			0.428	0.11	0.623	0.478	0.317			0.391	0.585	0.967	0.349

— the supplement of paper PMC11061612
